For orientation: IC50 means the midpoint of a concentration-inhibition curve. A low value points to greater potency in that assay.

T2 sequence (P00742 235-488 limits assumed): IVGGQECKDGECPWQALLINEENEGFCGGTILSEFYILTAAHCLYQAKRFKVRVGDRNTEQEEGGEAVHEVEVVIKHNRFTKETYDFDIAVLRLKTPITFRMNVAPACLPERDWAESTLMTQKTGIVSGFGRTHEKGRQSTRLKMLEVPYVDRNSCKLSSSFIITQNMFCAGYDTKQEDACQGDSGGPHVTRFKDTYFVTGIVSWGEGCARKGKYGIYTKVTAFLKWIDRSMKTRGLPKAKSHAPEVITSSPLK
T2 sequence (P00742 41-179 partner limits assumed): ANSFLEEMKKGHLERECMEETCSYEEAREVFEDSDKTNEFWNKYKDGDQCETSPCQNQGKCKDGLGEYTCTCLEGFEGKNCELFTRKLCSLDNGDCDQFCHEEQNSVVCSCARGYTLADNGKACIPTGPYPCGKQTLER

The subject of the first assay is human plasma. Description: Measurement of intrinsic coagulation time (APTT) in vitro. The assay is classed as biochemical.
Details: not given
As to the method:
Activated partial thromboplastin time (APTT) is measured in the presence of the test compounds diluted at various concentrations. A test compound diluted with DMSO at various concentrations is mixed with human plasma and APTT reagent. The mixture is incubated at 37° C. for 2 minutes; calcium chloride (25 mM) is added to the mixture; and the coagulation time is thereafter measured. It should be noted that the anticoagulant activity of the test compound is described in terms of the concentration required to double the coagulation time for the case where no test compound is added.
`O=C(O)COCC12CN(S(=O)(=O)c3ccc4cc(Cl)ccc4c3)CC(=O)N1CC1(CCN(c3ccncc3)CC1)O2` (stereo not drawn) [Example 5, 1,4-Diaza-4-(6-chloronaphthalen-2-ylsulfonyl)-6-(carboxymethoxymethyl)-7-oxa-1′-(4-pyridyl)spiro[bicyclo[4.3.0]nonane-8,4′-piperidin]-2-one]: the “Concentration required to double coagulation time” value stood at 0.43 µM.

A further assay deals with T1, trypsin (Bos taurus, UniProt P00760).
T1 construct: gene PRSS1
T1 sequence (P00760 24-246): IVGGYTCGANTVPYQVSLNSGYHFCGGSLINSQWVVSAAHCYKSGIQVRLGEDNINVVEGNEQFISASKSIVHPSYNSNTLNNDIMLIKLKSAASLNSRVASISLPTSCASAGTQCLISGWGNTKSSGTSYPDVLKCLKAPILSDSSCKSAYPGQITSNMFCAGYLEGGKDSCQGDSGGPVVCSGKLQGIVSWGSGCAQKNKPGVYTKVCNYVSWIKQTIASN
Put plainly: Inhibitory activity for trypsin. In kind it is biochemical. The settings on record: FXa versus trypsin.
Regarding `COCC12CN(S(=O)(=O)c3ccc4cc(Cl)ccc4c3)CC(=O)N1CC1(CCN(c3ccncc3)CC1)O2` (single isomer, unassigned; (-)) [Compound A, (−)-1,4-diaza-4-(6-chloronaphthalen-2-ylsulfonyl)-6-(methoxymethyl)-7-oxa-1′-(4-pyridyl)spiro[bicyclo[4.3.0]nonane-8,4′-piperidin]-2-one], the selectivity for trypsin entry is reported as “remarkably high selectivity”.

The next assay has as its target T2, human FXa (Homo sapiens, UniProt P00742).
T2 construct: purchased Enzyme Research Laboratories, Inc
Put plainly: Measurement of human FXa inhibitory action (chromogenic substrate S-2222). The settings on record: human FXa 0.019 U/ml, S-2222 0.4 mM, 37° C., pH 7.5. The assay is classed as biochemical. As to the method:
In vitro FXa inhibitory activity is measured in accordance with the method of Kettner et al. (Journal of Biological Chemistry, vol. 265, pages 18289 to 18297, 1990). To be more specific, human FXa (product of Enzyme Research Laboratories, Inc., 0.019 U/ml) is mixed with a test compound diluted with dimethylsulfoxide (DMSO) at various concentrations and a synthetic substrate S-2222 (Chromogenix AB, 0.4 mM). The mixtures are incubated at 37° C. in Tris-hydrochloric acid buffer (pH 7.5) while the absorbance at 405 nm is measured continuously. To calculate the FXa inhibitory activity of the test compound, the initial reaction velocity is compared with the value for a control containing no test compound. It should be noted that the FXa inhibitory activity of the test compound is generally indicated as IC50.
In turn, `O=C(O)COCC12CN(S(=O)(=O)c3ccc4cc(Cl)ccc4c3)CC(=O)N1CC1(CCN(c3ccncc3)CC1)O2` (stereo not drawn) [Example 5, 1,4-Diaza-4-(6-chloronaphthalen-2-ylsulfonyl)-6-(carboxymethoxymethyl)-7-oxa-1′-(4-pyridyl)spiro[bicyclo[4.3.0]nonane-8,4′-piperidin]-2-one] had an IC50 of 2.9 nM.

In turn, `CCOC(=O)NCC12CN(S(=O)(=O)c3ccc4cc(Cl)ccc4c3)CC(=O)N1CC1(CCN(c3ccncc3)CC1)O2` (stereo not drawn) [Example 59, 1,4-Diaza-4-(6-chloronaphthalen-2-ylsulfonyl)-6-(ethoxycarbonylaminomethyl)-7-oxa-1′-(4-pyridyl)spiro[bicyclo[4.3.0]nonane-8,4′-piperidin]-2-one] returned an IC50 of 3.4 nM.

Compound `O=C1CN(S(=O)(=O)c2ccc3cc(Cl)ccc3c2)CC2(CN3CCOCC3)OC3(CCN(c4ccncc4)CC3)CN12` (stereo not drawn) [Example 61, 1,4-Diaza-4-(6-chloronaphthalen-2-ylsulfonyl)-6-(morpholinomethyl)-7-oxa-1′-(4-pyridyl)spiro[bicyclo[4.3.0]nonane-8,4′-piperidin]-2-one] returned an IC50 of 2.8 nM. This IC50 and that of the compound before are within 1.5-fold of each other.

`O=C1CN(S(=O)(=O)c2cc3ccc(Cl)cc3s2)CC2OC3(CCN(c4ccncc4)CC3)CN12` (stereo not drawn) [Example 213, 1,4-Diaza-4-(6-chlorobenzo[b]thiophen-2-ylsulfunyl)-7-oxa-1′-(4-pridyl)spiro[bicyclo[4.3.0]nonane-8,4′-piperidin]-2-one] yielded an IC50 of 0.6 nM.

Compound `O=C1CN(S(=O)(=O)C=Cc2ccc(Cl)s2)CC2NC3(CCN(c4ccncc4)CC3)CN12` (stereo not drawn) [Example 628, 1,4,7-Triaza-4-[2-(5-chlorothiophen-2-yl)ethenesulfonyl]-1′-(4-pyridyl)spiro[bicyclo[4.3.0]nonane-8,4′-piperidin]-2-one] registered an IC50 of 5.3 nM.

In turn, `COCC12CN(S(=O)(=O)C=Cc3ccc(Cl)s3)CC(=O)N1CC1(CCN(c3ccncc3)CC1)O2` (stereo not drawn) [Example 684, 1,4-Diaza-4-[2-(5-chlorothiophen-2-yl)ethenesulfonyl]-6-(methoxymethyl)-7-oxa-1′-(4-pyridyl)spiro[bicyclo[4.3.0]nonane-8,4′-piperidin]-2-one] came in with an IC50 of 1.8 nM.

`COCC12CN(S(=O)(=O)C=Cc3ccc(Cl)s3)CC(=O)N1CC1(CCN(c3ccncc3)CC1)N2` (stereo not drawn) [Example 712, 1,4,7-Triaza-4-[2-(5-chlorothiophen-2-yl)ethenesulfonyl]-6-(methoxymethyl)-1′-(4-pyridyl)spiro[bicyclo[4.3.0]nonane-8,4′-piperidin]-2-one] displayed an IC50 of 1.8 nM.

On to `O=C1CN(S(=O)(=O)c2ccc3nc(Cl)ccc3c2)CC2OC3(CCN(c4ccncc4)CC3)CN12` (stereo not drawn) [Example 760, 1,4-Diaza-4-(2-chloroquinolin-6-ylsulfonyl)-7-oxa-1′-(4-pyridyl)spiro[bicyclo[4.3.0]nonane-8,4′-piperidin]-2-one], for which the IC50 is 5.9 nM.

The compound `O=C1CN(S(=O)(=O)c2ccc3cc(Cl)ccc3c2)CC2NC3(CCN(c4ccncc4)CC3)CN12` (stereo not drawn) [Example 765, 1,4,7-Triaza-4-(6-chloronaphthalen-2-ylsulfonyl)-1′-(4-pyridyl)spiro[bicyclo[4.3.0]nonane-8,4′-piperidin]-2-one] registered an IC50 of 5.7 nM.

Regarding `COCC12CN(S(=O)(=O)c3ccc4nc(Cl)ccc4c3)CC(=O)N1CC1(CCN(c3ccncc3)CC1)O2` (stereo not drawn) [Example 770, 1,4-Diaza-4-(2-chloroquinolin-6-ylsulfonyl)-6-(methoxymethyl)-7-oxa-1′-(4-pyridyl)spiro[bicyclo[4.3.0]nonane-8,4′-piperidin]-2-one], the IC50 turned out to be 1.8 nM.

For the origin of these results see patent publication US20040063716A1, “Cholesterol biosynthesis inhibitors containing as the active ingredient tricyclic spiro compounds” (priority 2000, published 2004).
